How the values were obtained:
ICR male mice = assay: Phenyl-p-quinone (PBQ)-induced writhing experiment using mice; format: in vivo; settings: orally administered, PBQ (0.02%) intraperitoneally after 1 hour, writhing counted for 10 min
Procedure: In order to evaluate the effect on pain of the compounds prepared in the Examples, behaviors such as twisting or writhing of body resulted from pain were verified by the phenyl-p-quinone (PBQ)-induced writhing experiment using mice. 5 week-old ICR male mice were used as experimental animals and PBQ (0.02%), as a chemical stimulator. The suspensions of 20 mg of the compounds of the present invention and an excipient such as Na—CMC (sodium carboxymethyl cellulose) in 10 mL of saline were used as test compounds. The test compounds were orally administered to the mice and after 1 hour, PBQ was intraperitoneally administrated in an amount of 10 mL per kg of body weight. Also, as a control group, equivalent amounts of BCTC were administered. The writhing number of each mouse was measured for 10 min starting from 5 min after the administration, and the analgesic effect was verified by counting the reduced number compared to the control group administered with only excipient and calculating the % inhibitory rate according to the following Formula 2. % inhibition rate=(writhing # of control group−writhing # of test group)/writhing # of control group×100 [Formula 2]

[1] = biological target: T1, human vanilloid-1 (hVR-1) in hVR-1-HEK293 cell line (Homo sapiens, UniProt Q8NER1); assay: Inhibitory effect on calcium influx via a vanilloid receptor (capsaicin-stimulated, Fluo-3/AM); format: cell-based; settings: hVR-1-HEK293 cells, 1 μM of capsaicin, compounds 0.015˜2000 nM; read-out: I.A. (inhibitory activity), IC50 on intracellular calcium influx
T1 construct: expressed in transfected cells; host or cells: HEK293 Tet-on strain, doxycycline-induced
T1 sequence (Q8NER1 whole entry): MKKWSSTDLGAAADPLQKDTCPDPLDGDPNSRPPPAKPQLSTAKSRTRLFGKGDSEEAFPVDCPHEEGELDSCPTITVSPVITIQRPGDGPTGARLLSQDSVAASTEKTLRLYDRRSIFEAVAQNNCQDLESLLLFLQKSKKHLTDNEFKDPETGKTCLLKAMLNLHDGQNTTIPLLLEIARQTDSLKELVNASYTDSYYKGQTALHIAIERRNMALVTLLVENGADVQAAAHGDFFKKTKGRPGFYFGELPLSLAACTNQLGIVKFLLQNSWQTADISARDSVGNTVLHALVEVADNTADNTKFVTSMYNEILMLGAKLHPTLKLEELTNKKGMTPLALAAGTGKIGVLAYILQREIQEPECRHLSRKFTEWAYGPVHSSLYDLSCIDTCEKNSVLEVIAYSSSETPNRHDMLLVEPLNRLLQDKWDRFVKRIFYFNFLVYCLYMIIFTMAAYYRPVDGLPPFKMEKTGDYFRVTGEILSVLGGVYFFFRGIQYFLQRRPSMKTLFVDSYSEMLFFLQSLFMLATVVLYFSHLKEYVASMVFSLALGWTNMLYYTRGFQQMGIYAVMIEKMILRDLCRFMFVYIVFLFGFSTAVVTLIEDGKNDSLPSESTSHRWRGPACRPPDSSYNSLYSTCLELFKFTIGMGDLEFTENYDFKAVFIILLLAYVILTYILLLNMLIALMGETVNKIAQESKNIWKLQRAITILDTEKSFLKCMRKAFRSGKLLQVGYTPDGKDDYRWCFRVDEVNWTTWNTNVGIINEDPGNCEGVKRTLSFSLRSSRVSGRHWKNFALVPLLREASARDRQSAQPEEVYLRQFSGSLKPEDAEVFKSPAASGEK
Procedure: The cell line can modulate the expression of VR-1, depending on whether doxycycline, a derivative of tetracycline, is present or not. […] Specifically, hVR-1-HEK293 cells were cultured in a T75 flask to about 80% confluency, separated from the flask by treating with trypsin solution, and then collected by centrifugation. The cells were suspended in a medium containing 1 μg/mL of doxycycline, and the resulting suspension was diluted to a concentration of 2˜4×10^5 cells/mL […], of the cell suspension was placed in each well of a 96-well black plate. The cells were cultured in 5% CO2 incubator at 37° C. for 2 days, and used for the following procedure. […] The cells prepared in 1) above were cultured at 37° C. for 90 min in a solution containing Fluo-3/AM, a fluorescent dye, as a calcium indicator so that the fluorescent dye was permeated into the cells. […] In order to stimulate calcium influx through a vanilloid receptor, the cells were treated with 1 μM of capsaicin. […] The obtained data were input to the Hill equation represented by the following formula I and the values were analyzed: Intracellular calcium influx= [(fluorescent intensity of experimental group−fluorescent intensity of background)/(fluorescent intensity of positive control−fluorescent intensity of background)]*100 [Formula I] The inhibitory activities were evaluated from the obtained intracellular calcium influx values according to the following criteria.

| Structure (SMILES) | IC50 [1] [nM] | I.A. (inhibitory activity), % inhibition rate of writhing (ICR male mice) |
| --- | --- | --- |
| CCc1ccc(N2c3cccc(-c4nc5ccc(OC(F)(F)F)cc5[nH]4)c3OC[C@@H]2CO)nc1 [Example 82, [(S)-4-(5-ethyl-pyridin-2-yl)-8-(6-trifluoromethoxy-1H-benzimidazol-2-yl)-3,4-dihydro-2H-benzo[1,4]oxazin-3-yl]-methanol] | 20 to 100 | +++ (51-80%) |
| COC[C@H]1COc2c(-c3nc4c(C(F)(F)F)cc(C(F)(F)F)cc4[nH]3)cccc2N1c1ccc(C)cn1 [Example 96, (S)-8-(4,6-bis-trifluoromethyl-1H-benzimidazol-2-yl)-3-methoxymethyl-4-(5-methyl-pyridin-2-yl)-3,4-dihydro-2H-benzo[1,4]oxazine] | < 20 | ++++ (>80%) |
| C=Cc1ccc(N2c3cccc(-c4nc5cc(Cl)c(Cl)cc5[nH]4)c3OC[C@@H]2CO)nc1 [Example 68, [(S)-8-(5,6-dichloro-1H-benzimidazol-2-yl)-4-(5-vinyl-pyridin-2-yl)-3,4-dihydro-2H-benzo[1,4]oxazin-3-yl]-methanol] | < 20 | +++ (51-80%) |
| CCc1ccc(N2c3cccc(-c4nc5c(F)cc(Br)cc5[nH]4)c3OC[C@@H]2CO)nc1 [Example 85, [(S)-8-(6-bromo-4-fluoro-1H-benzimidazol-2-yl)-4-(5-ethyl-pyridin-2-yl)-3,4-dihydro-2H-benzo[1,4]oxazin-3-yl]-methanol] | 20 to 100 | +++ (51-80%) |
| C=Cc1ccc(N2c3cccc(-c4nc5c(C)cc(Br)cc5[nH]4)c3OC[C@@H]2CO)nc1 [Example 66, [(S)-8-(6-bromo-4-methyl-1H-benzimidazol-2-yl)-4-(5-vinyl-pyridin-2-yl)-3,4-dihydro-2H-benzo[1,4]oxazin-3-yl]-methanol] | < 20 | +++ (51-80%) |
| Cc1ccc(N2c3cccc(-c4nc5ccc(C(F)(F)F)cc5[nH]4)c3OC[C@@H]2CO)nc1 [Example 35, [(S)-4-(5-methyl-pyridin-2-yl)-8-(6-trifluoromethyl-1H-benzimidazol-2-yl)-3,4-dihydro-2H-benzo[1,4]oxazin-3-yl]-methanol] | < 20 | +++ (51-80%) |

The next lines start with results.

| IC50 [1] [nM] | Structure (SMILES) | I.A. (inhibitory activity), % inhibition rate of writhing (ICR male mice) |
| --- | --- | --- |
| < 20 | COC[C@H]1COc2c(-c3nc4ccc(C(F)(F)F)cc4[nH]3)cccc2N1c1ccc(C)cn1 [Example 90, (S)-3-methoxymethyl-4-(5-methyl-pyridin-2-yl)-8-(6-trifluoromethyl-1H-benzimidazol-2-yl)-3,4-dihydro-2H-benzo[1,4]oxazine] | +++ (51-80%) |
| < 20 | COC[C@H]1COc2c(-c3nc4c(F)cc(Br)cc4[nH]3)cccc2N1c1ccc(C)cn1 [Example 94, (S)-8-(6-bromo-4-fluoro-1H-benzimidazol-2-yl)-3-methoxymethyl-4-(5-methyl-pyridin-2-yl)-3,4-dihydro-2H-benzo[1,4]oxazine] | +++ (51-80%) |
| < 20 | COC[C@H]1COc2c(-c3nc4cc(F)c(F)cc4[nH]3)cccc2N1c1ccc(C)cn1 [Example 102, (S)-8-(5,6-difluoro-1H-benzimidazol-2-yl)-3-methoxymethyl-4-(5-methyl-pyridin-2-yl)-3,4-dihydro-2H-benzo[1,4]oxazine] | +++ (51-80%) |
| 20 to 100 | COc1ccc2nc(-c3cccc4c3OC[C@H](CO)N4c3ccc(C)cn3)[nH]c2c1 [Example 48, [(S)-8-(6-methoxy-1H-benzimidazol-2-yl)-4-(5-methyl-pyridin-2-yl)-3,4-dihydro-2H-benzo[1,4]oxazin-3-yl]-methanol] | ++ (20˜50%) |
| 20 to 100 | COC[C@H]1COc2c(-c3nc4ccc(OC(F)(F)F)cc4[nH]3)cccc2N1c1ccc(C)cn1 [Example 99, (S)-3-methoxymethyl-4-(5-methyl-pyridin-2-yl)-8-(6-trifluoromethoxy-1H-benzimidazol-2-yl)-3,4-dihydro-2H-benzo[1,4]oxazine] | ++++ (>80%) |

Reference: patent publication US8362012B2, “Benzoxazine benzimidazole derivative, a pharmaceutical composition comprising the same, and a use thereof” (Daewoong Pharmaceutical Co., Ltd., priority 2008, dated 2013)
